Structures are written as SMILES.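 Tested at 5 concentrations; 48 h exposure; 96-well plates; endpoints linearly interpolated, else capped at highest concentration. Abbreviation: GI50, concentration required for 50% inhibition of growth. TGI denotes the concentration required for complete inhibition of growth.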 Where only a bound is given, the exact number is not on record here.

The test system of the first assay is SNB-75 CNS. The assay can be described thus: NCI-60 cell line screen, 48 h.
With `CN(CCCNC(=O)Cc1ccc2ccc3cccc4ccc1c2c34)CCCNc1cc(-c2ccc3ccccc3c2)nc2ccccc12`, the GI50 was 1.45 µM and the TGI was determined as 2.75 µM.

For `CCc1ccccc1NC(=O)c1sc2nc3c(cc2c1N)C(=O)CCC3`, the GI50 was 0.346 µM and the TGI is 55.1 µM.

On to `C[C@]12CC[C@@H]3c4ccc(O)cc4CC[C@H]3[C@@H]1CC[C@@H]2NS(=O)(=O)c1cccc(F)c1`, for which the GI50 was 2.93 µM and the TGI was determined as 15 µM.

Turning to `CC(C)OC(=O)NNc1cc(Cl)ccc1Cl`, the TGI was greater than 100 µM.

In the case of `Cc1cc(C2CC(O)C(CO)O2)cc2c(=O)[nH]c(N)nc12` (stereo not given), the GI50 is 81.3 µM and the TGI was greater than 100 µM.

For `COc1cccc(/C(COc2ccc3c(c2)oc(=O)c2cc(OC)ccc23)=N/O)c1`, the GI50 is 2.36 µM and the TGI was 9.61 µM.

In the case of `N=C(N)SCc1cccc(-c2nc3ccccc3c(=O)o2)c1`, the TGI was greater than 100 µM.

With `Oc1cn(-c2ccc(Cl)cc2)nc1-c1n[nH]c(=S)n1C1CCCCC1`, the GI50 was 0.165 µM and the TGI was 0.702 µM.

In the case of `COc1ccc(Nc2c3ccccc3nc3occ(Cl)c23)cc1`, the GI50 was 0.0908 µM and the TGI is greater than 100 µM.

As to `Cn1cc(C2=C(c3cn(CCCCCN)c4ccccc34)C(=O)NC2=O)c2ccccc21`, the GI50 was 1.08 µM and the TGI is greater than 25 µM.

The compound `C=C1C(=O)O[C@H]2/C=C(/C)C3=CC(=O)[C@@](C)(C[C@@H](OC(=O)/C(C)=C\C)C12)O3` (stereo not given in full) had a TGI of 23.9 µM.

A further assay has as its system HL-60(TB) leukemia. In words: NCI-60 cell line screen, 48 h.
For `CN(CCCNC(=O)Cc1ccc2ccc3cccc4ccc1c2c34)CCCNc1cc(-c2ccc3ccccc3c2)nc2ccccc12`, the GI50 is 1.1 µM and the TGI came to 2.43 µM.

For `CCc1ccccc1NC(=O)c1sc2nc3c(cc2c1N)C(=O)CCC3`, the GI50 is 0.326 µM and the TGI came to 43.7 µM.

Regarding `Cc1cc(S(=O)(=O)N/N=C(\Sc2cc(Cl)c(C)cc2S(N)(=O)=O)c2ccc(Cl)cc2)c(Cl)cc1Cl`, the GI50 was 76.4 µM and the TGI was greater than 100 µM.

Compound `CC(C)OC(=O)NNc1cc(Cl)ccc1Cl` yielded a TGI greater than 100 µM.

`COc1cc2c(cc1O)C1Cc3ccc(OC)c(O)c3C(C2)N1C` (stereo not given): the TGI is greater than 100 µM.

Turning to `COc1ccc2c(c1)[C@@]13CCCC[C@H]1[C@@H](C2)N(C)CC3=O`, the TGI is greater than 100 µM.

Regarding `Cc1cc2c(cc1Cl)SC(=Nc1ccc(Cl)cc1)N(S(=O)(=O)c1ccccc1)S2(=O)=O`, the GI50 was 11.7 µM and the TGI stood at 32.7 µM.

Take `COc1ccc(Nc2c3ccccc3nc3occ(Cl)c23)cc1`: the GI50 is less than 0.01 µM and the TGI was determined as 0.547 µM.

In the case of `Cn1cc(C2=C(c3cn(CCCCCN)c4ccccc34)C(=O)NC2=O)c2ccccc21`, the GI50 was 6.07 µM and the TGI came out at 13.4 µM.

For the compound `Cc1cc[c-]cc1.Fc1c[c-]c(-c2ccccn2)c(F)c1.[Pt+2].c1ccc(P(C[PH+](c2ccccc2)c2ccccc2)c2ccccc2)cc1`, the GI50 is 2.36 µM and the TGI was 6.88 µM.

Take `O=C(CSC(c1ccccc1)c1ccccc1)N/N=C/c1ccc(Cl)cc1Cl`: the GI50 was 24.4 µM and the TGI came out at 55.1 µM.

Another assay has as its system A549 NSCLC. The assay can be described thus: NCI-60 cell line screen, 48 h.
With `CN(CCCNC(=O)Cc1ccc2ccc3cccc4ccc1c2c34)CCCNc1cc(-c2ccc3ccccc3c2)nc2ccccc12`, the GI50 is 1.83 µM and the TGI amounted to 3.75 µM.

Turning to `CCc1ccccc1NC(=O)c1sc2nc3c(cc2c1N)C(=O)CCC3`, the GI50 was 0.656 µM and the TGI is greater than 100 µM.

Consider `C[C@]12CC[C@@H]3c4ccc(O)cc4CC[C@H]3[C@@H]1CC[C@@H]2NS(=O)(=O)c1cccc(F)c1`, for which the GI50 was 3.13 µM and the TGI stood at 12.6 µM.

Consider `Cc1cc(S(=O)(=O)N/N=C(\Sc2cc(Cl)c(C)cc2S(N)(=O)=O)c2ccc(Cl)cc2)c(Cl)cc1Cl`, for which the GI50 is 36.6 µM and the TGI was greater than 100 µM.

Take `CC(=O)/C=C/c1ccc(C#Cc2ccccc2)s1`: the GI50 is 15.1 µM and the TGI was 28.5 µM.

On to `CC(C)OC(=O)NNc1cc(Cl)ccc1Cl`, for which the TGI is greater than 100 µM.

As to `Cc1cc(C2CC(O)C(CO)O2)cc2c(=O)[nH]c(N)nc12` (stereo not given), the GI50 is greater than 100 µM and the TGI was greater than 100 µM.

`COc1cc2c(cc1O)C1Cc3ccc(OC)c(O)c3C(C2)N1C` (stereo not given) registered a TGI greater than 100 µM.

For `COc1ccc2c(c1)[C@@]13CCCC[C@H]1[C@@H](C2)N(C)CC3=O`, the TGI was determined as 41 µM.

For the compound `COc1cccc(/C(COc2ccc3c(c2)oc(=O)c2cc(OC)ccc23)=N/O)c1`, the GI50 was 7.57 µM and the TGI is greater than 100 µM.

Regarding `N=C(N)SCc1cccc(-c2nc3ccccc3c(=O)o2)c1`, the TGI is greater than 100 µM.

In the case of `Cc1cc2c(cc1Cl)SC(=Nc1ccc(Cl)cc1)N(S(=O)(=O)c1ccccc1)S2(=O)=O`, the GI50 is 13.7 µM and the TGI came out at 32.2 µM.

Turning to `Oc1cn(-c2ccc(Cl)cc2)nc1-c1n[nH]c(=S)n1C1CCCCC1`, the GI50 is 2.03 µM and the TGI is greater than 48.8 µM.

For `COc1ccc(Nc2c3ccccc3nc3occ(Cl)c23)cc1`, the GI50 is less than 0.0112 µM and the TGI was determined as 3.95 µM.

For `Cn1cc(C2=C(c3cn(CCCCCN)c4ccccc34)C(=O)NC2=O)c2ccccc21`, the GI50 is 10.1 µM and the TGI is greater than 25 µM.

As for `Cc1cc[c-]cc1.Fc1c[c-]c(-c2ccccn2)c(F)c1.[Pt+2].c1ccc(P(C[PH+](c2ccccc2)c2ccccc2)c2ccccc2)cc1`, the GI50 is 1.43 µM and the TGI was 12.1 µM.

`C=C1C(=O)O[C@H]2/C=C(/C)C3=CC(=O)[C@@](C)(C[C@@H](OC(=O)/C(C)=C\C)C12)O3` (stereo not given in full) came in with a TGI of 17.8 µM.

`O=C(CSC(c1ccccc1)c1ccccc1)N/N=C/c1ccc(Cl)cc1Cl`: the GI50 is 20.5 µM and the TGI stood at 51.1 µM.

A further assay deals with PC-3 prostate. The assay can be described thus: NCI-60 cell line screen, 48 h.
For `CN(CCCNC(=O)Cc1ccc2ccc3cccc4ccc1c2c34)CCCNc1cc(-c2ccc3ccccc3c2)nc2ccccc12`, the GI50 is 1.49 µM and the TGI came out at 3.22 µM.

For the compound `CCc1ccccc1NC(=O)c1sc2nc3c(cc2c1N)C(=O)CCC3`, the GI50 was 0.461 µM and the TGI was greater than 100 µM.

For the compound `C[C@]12CC[C@@H]3c4ccc(O)cc4CC[C@H]3[C@@H]1CC[C@@H]2NS(=O)(=O)c1cccc(F)c1`, the GI50 was 2.96 µM and the TGI was found to be 14 µM.

Turning to `Cc1cc(S(=O)(=O)N/N=C(\Sc2cc(Cl)c(C)cc2S(N)(=O)=O)c2ccc(Cl)cc2)c(Cl)cc1Cl`, the GI50 is 86.4 µM and the TGI was greater than 100 µM.

As for `CC(=O)/C=C/c1ccc(C#Cc2ccccc2)s1`, the GI50 was 15.7 µM and the TGI came out at 29 µM.

On to `CC(C)OC(=O)NNc1cc(Cl)ccc1Cl`, for which the TGI was greater than 100 µM.

`Cc1cc(C2CC(O)C(CO)O2)cc2c(=O)[nH]c(N)nc12` (stereo not given): the GI50 was greater than 100 µM and the TGI is greater than 100 µM.

`COc1cc2c(cc1O)C1Cc3ccc(OC)c(O)c3C(C2)N1C` (stereo not given): the TGI was greater than 100 µM.

With `COc1ccc2c(c1)[C@@]13CCCC[C@H]1[C@@H](C2)N(C)CC3=O`, the TGI was determined as 29 µM.

For `COc1cccc(/C(COc2ccc3c(c2)oc(=O)c2cc(OC)ccc23)=N/O)c1`, the GI50 is 6.29 µM and the TGI is greater than 100 µM.

`N=C(N)SCc1cccc(-c2nc3ccccc3c(=O)o2)c1`: the TGI was greater than 100 µM.

With `Cc1cc2c(cc1Cl)SC(=Nc1ccc(Cl)cc1)N(S(=O)(=O)c1ccccc1)S2(=O)=O`, the GI50 was 10.9 µM and the TGI was found to be 23.1 µM.

Consider `Oc1cn(-c2ccc(Cl)cc2)nc1-c1n[nH]c(=S)n1C1CCCCC1`, for which the GI50 was 11.4 µM and the TGI is greater than 66.9 µM.

For the compound `COc1ccc(Nc2c3ccccc3nc3occ(Cl)c23)cc1`, the GI50 is less than 0.01 µM and the TGI came out at 13.6 µM.

Turning to `Cn1cc(C2=C(c3cn(CCCCCN)c4ccccc34)C(=O)NC2=O)c2ccccc21`, the GI50 was 13.8 µM and the TGI is greater than 25 µM.

Take `Cc1cc[c-]cc1.Fc1c[c-]c(-c2ccccn2)c(F)c1.[Pt+2].c1ccc(P(C[PH+](c2ccccc2)c2ccccc2)c2ccccc2)cc1`: the GI50 is 1.76 µM and the TGI came to 11.7 µM.

For `C=C1C(=O)O[C@H]2/C=C(/C)C3=CC(=O)[C@@](C)(C[C@@H](OC(=O)/C(C)=C\C)C12)O3` (stereo not given in full), the TGI was 8.78 µM.

As to `O=C(CSC(c1ccccc1)c1ccccc1)N/N=C/c1ccc(Cl)cc1Cl`, the GI50 is 31.9 µM and the TGI was greater than 100 µM.

A further assay concerns UO-31 renal. The assay can be described thus: NCI-60 cell line screen, 48 h.
Consider `CN(CCCNC(=O)Cc1ccc2ccc3cccc4ccc1c2c34)CCCNc1cc(-c2ccc3ccccc3c2)nc2ccccc12`, for which the GI50 was 1.4 µM and the TGI is 3.15 µM.

For `CCc1ccccc1NC(=O)c1sc2nc3c(cc2c1N)C(=O)CCC3`, the GI50 was 14.8 µM and the TGI is greater than 100 µM.

With `C[C@]12CC[C@@H]3c4ccc(O)cc4CC[C@H]3[C@@H]1CC[C@@H]2NS(=O)(=O)c1cccc(F)c1`, the GI50 is 2.04 µM and the TGI amounted to 10.3 µM.

With `Cc1cc(S(=O)(=O)N/N=C(\Sc2cc(Cl)c(C)cc2S(N)(=O)=O)c2ccc(Cl)cc2)c(Cl)cc1Cl`, the GI50 was 57.1 µM and the TGI is greater than 100 µM.

Regarding `CC(=O)/C=C/c1ccc(C#Cc2ccccc2)s1`, the GI50 was 14.3 µM and the TGI stood at 27.3 µM.

Take `CC(C)OC(=O)NNc1cc(Cl)ccc1Cl`: the TGI is greater than 100 µM.

As for `Cc1cc(C2CC(O)C(CO)O2)cc2c(=O)[nH]c(N)nc12` (stereo not given), the GI50 is greater than 100 µM and the TGI was greater than 100 µM.

As to `COc1cc2c(cc1O)C1Cc3ccc(OC)c(O)c3C(C2)N1C` (stereo not given), the TGI is greater than 100 µM.

On to `COc1ccc2c(c1)[C@@]13CCCC[C@H]1[C@@H](C2)N(C)CC3=O`, for which the TGI worked out at 32.9 µM.

For `COc1cccc(/C(COc2ccc3c(c2)oc(=O)c2cc(OC)ccc23)=N/O)c1`, the GI50 is 7.11 µM and the TGI turned out to be 75.6 µM.

In turn, `N=C(N)SCc1cccc(-c2nc3ccccc3c(=O)o2)c1` registered a TGI greater than 100 µM.

Take `Cc1cc2c(cc1Cl)SC(=Nc1ccc(Cl)cc1)N(S(=O)(=O)c1ccccc1)S2(=O)=O`: the GI50 is 13.5 µM and the TGI amounted to 32.7 µM.

On to `Oc1cn(-c2ccc(Cl)cc2)nc1-c1n[nH]c(=S)n1C1CCCCC1`, for which the GI50 is 17 µM and the TGI was greater than 100 µM.

Consider `COc1ccc(Nc2c3ccccc3nc3occ(Cl)c23)cc1`, for which the GI50 was 0.346 µM and the TGI was 26.9 µM.

In the case of `Cn1cc(C2=C(c3cn(CCCCCN)c4ccccc34)C(=O)NC2=O)c2ccccc21`, the GI50 was 5.52 µM and the TGI is greater than 25 µM.

Take `Cc1cc[c-]cc1.Fc1c[c-]c(-c2ccccn2)c(F)c1.[Pt+2].c1ccc(P(C[PH+](c2ccccc2)c2ccccc2)c2ccccc2)cc1`: the GI50 is 2.13 µM and the TGI was determined as 7.53 µM.

For `C=C1C(=O)O[C@H]2/C=C(/C)C3=CC(=O)[C@@](C)(C[C@@H](OC(=O)/C(C)=C\C)C12)O3` (stereo not given in full), the TGI came to 3.56 µM.

`O=C(CSC(c1ccccc1)c1ccccc1)N/N=C/c1ccc(Cl)cc1Cl`: the GI50 was 18.8 µM and the TGI amounted to 68 µM.

In another assay the test system is DU-145 prostate. The assay can be described thus: NCI-60 cell line screen, 48 h.
In the case of `CN(CCCNC(=O)Cc1ccc2ccc3cccc4ccc1c2c34)CCCNc1cc(-c2ccc3ccccc3c2)nc2ccccc12`, the GI50 is 1.55 µM and the TGI amounted to 2.89 µM.

In the case of `CCc1ccccc1NC(=O)c1sc2nc3c(cc2c1N)C(=O)CCC3`, the GI50 is 0.589 µM and the TGI was greater than 100 µM.

Values taken from PubChem BioAssay (NCI).
